From US8058344B2, “Glycodendrimers having biological activity” (Imperial Innovations Ltd, priority 2002, dated 2011)

Legend:
[1] = tested on: Sup-T1, C8166, U937, U87-CD4-CCR5 and B16F10 cells; test: Toxicity in cell lines, MTT assay, stated over all cell lines; assay type: cell-based, human; murine; settings: concentrations up to 1,000 μg/ml
Procedure: (§1) The compounds synthesised were evaluated for their toxicity in the following cell lines:—the human T-cell line (Sup-T1), a human T-cell line transformed with HTLV-1 (C8166), the human monocytic cell line (U937), the brain cell line transfected with human CD4 and the human chemokine receptor CCR5 (U87-CD4-CCR5), and the murine melanoma cell line (B16P10).
(§2) Dendrimers, glucosamine, glucosamine 6-sulfate and dendrimer conjugates were incubated with each cell line. […] The conjugates or controls were incubated for 67 h with the cells at concentrations ranging from […]. An MTT assay was then used to determine cell viability and the results were expressed as a percentage of that for cells grown in the absence of any compound.

[2] = tested on: human T-cell line (Sup-T1); test: Toxicity in cell lines, MTT assay; assay type: cell-based; settings: 67 h, ± SEM (n = 16)
Procedure: as §1, §2

[3] = tested on: human monocytic cell line (U937); test: Toxicity in cell lines, MTT assay; assay type: cell-based; settings: U-937, 67 h, ± SEM (n = 16)
Procedure: as §1, §2

[4] = tested on: brain cell line transfected with human CD4 and the human chemokine receptor CCR5 (U87-CD4-CCR5); test: Toxicity in cell lines, MTT assay; assay type: cell-based; settings: 67 h, ± SEM (n = 16)
Procedure: as §1, §2

[5] = tested on: human T-cell line transformed with HTLV-1 (C8166); test: Toxicity in cell lines, MTT assay; assay type: cell-based; settings: 67 h, ± SEM (n = 16)
Procedure: as §1, §2

[6] = tested on: murine melanoma cell line (B16F10); test: Toxicity in cell lines, MTT assay; assay type: cell-based; settings: Mus musculus, B16-F10, 67 h, ± SEM (n = 16)
Procedure: as §1, §2

[7] = tested on: human umbilical vein endothelial cells; test: Endothelial microtubule formation assay on Matrigel; assay type: cell-based; settings: 100 μg/ml; 18 h; scale 0-4
Procedure: The endothelial microtubule formation assay was performed by isolating human umbilical vein endothelial cells from umbilical cords within 6 h of delivery by caesarean section. The embilical vein was cannulated and 0.1% collagenase in phosphate buffered saline was introduced and incubated for 20 minutes. The endothelial cells liberated by the collagenase were obtained by washing the umbilical vein with Medium 199. The cells were washed three times with Medium 199 and then cultured in tissue culture flasks coated with fibronectin. Growth media consisted of Medium 199 with 20% foetal bovine serum, 30 μg/ml endothelial cell growth supplement, 10 IU/ml heparin, 100 IU/ml penicillin, 100 μg/1 ml streptomycin and 2 mM L-glutamine. Human umbilical vein endothelial cells were passaged at confluence after treatment with trypsin-EDTA. All cells were used at passages to 6.
Aliquots of Matrigel were dispensed into 35 mm diameter tissue culture dishes on ice and then incubated at 37° C. for 10 min to allow the gel to set. […] At various time points from 8-24 hours, the plates were examined and scored using a published scheme from 0-4, where 0=all adherent cells remain single, and 4=all adherent cells involved in tubular structures. New vessel formation was quantified blind by three different observers at 18 h. […]
Endothelial microtubule formation by HUVECs on Matrigel (×40 magnification). A visual analogue scale was used to determine the extent of tube formation and scored on a scale from 0 (all cells remain single) to 4 (all cells involved in tubular structures) as previously described (Bauer J, Margolis M, Schreiner C, Edgell C-J, Azizkhan J, Lazarowski E, & Juliano R L. (1992) In vitro model of angiogenesis using a human endothelium derived permanent cell line: contributions of induced gene expression, G-proteins and integrins. J. Cellular Physiology 153: 437-449; Liaw, L & Schwartz S M. (1993) Microtubule disruption stimulates DNA synthesis in bovine endothelial cells and potentiates cellular response to basic fibroblast growth factor. […]

[8] = tested on: freshly isolated human PBMN cells and human MDM; test: Toxicity against primary human cells in vitro, MTT assay; assay type: cell-based; settings: up to the maximum concentration of 1,000 μg/ml
Procedure: The dendrimers and the dendrimer conjugates were incubated with freshly isolated, human peripheral blood mononuclear (PBMN) cells and with freshly isolated human monocyte-derived-macrophages QDM).
Human PBMN cells and human MDMs were separated from buffy coat residues within 24 h of collection by density gradient centrifugation. […] The monocytes were allowed to differentiate to MDMs by a further 3 days of adherence. The compounds were then added to PBMN cells or to MDMs (1×10^6 cells/ml) and incubated for 67 h. Cell viability was assessed using the MTT assay at 72 h.

Compound | toxicity [1] | IC50 [2] [µg/mL] | IC50 [3] [µg/mL] | IC50 [4] [µg/mL] | IC50 [5] [µg/mL] | IC50 [6] [µg/mL] | Tube formation score (n = 4) [7] | toxicity to PBMN cells or to MDMs [8]
N[C@H]1C(O)O[C@H](CO)[C@@H](O)[C@@H]1O (stereo partly shown) [glucosamine] | no toxicity | > 1000 | > 1000 | > 1000 | > 1000 | > 1000 | 4 | –
N[C@H]1C(O)O[C@H](COS(=O)(=O)O)[C@@H](O)[C@@H]1OS(=O)(=O)O (stereo partly shown) [glucosamine 3,6-disulfate] | – | – | – | – | – | – | 4 | –
N[C@H]1C(O)O[C@H](COS(=O)(=O)O)[C@@H](O)[C@@H]1O (stereo partly shown) [glucosamine 6-sulfate] | no toxicity | > 1000 | > 1000 | > 1000 | > 1000 | > 1000 | 4 | not toxic
